Experimental data reported in US20170131285A1, “METHODS AND COMPOSITIONS FOR DIAGNOSING, MONITORING AND TREATING CANCER” (INSERM (Institut National de la Sante et de la Recherche …, priority 2014, published 2017).
Where no end group is shown, it is not given here.

Legend:
primary MDSC = assay: Primary MDSC proliferation (Cellometer-mini); format: cell-based, mouse; conditions: exosomes from B16F10, A8 16 μM, 24 hours
Procedure: FIG. 9: TDE and A8 effects on MSC2 and MDSC proliferation. A) Dynamic monitoring of in vitro MSC2 cell proliferation using the RTCA-DP system (Real-Time Cell Analyzer). MSC2 were incubated or not for 11 h with exosomes (from B16F10) in the absence or presence of A8 (16 μM and 32 μM). Cell index values were measured every 30 seconds (n=3). B) MSC2 were incubated or not for 24 h with exosomes (from B16F10) in the absence or presence of A8 (16 μM). Then, cells were labelled with BrdU and incorporation was determined by flow cytometry (n=3). C) MDSC were treated with exosomes (from B16F10) in the absence or presence of A8 ([…]) for 24 hours and then analyzed for proliferation by Cellometer-mini. *p<0.05.
MSC2 cells proliferation were analyzed by to different techniques. First, MSC2 (1·10^4) were seeded onto 16-well plates with medium containing 10% FBS and incubated for 34 hours. […] Into each well of the micro-electronic sensor transendothelial electric resistance (TER) was measured by xCELLigence real time cell analyzer DP system (Roche). TER was measured every 30 s and then normalized to the initial value. […] MDSC proliferation was analyzed by cell counting. MDSC cells (1·10^6) from spleen of naive mice (see MDSC isolation section) were treated or not with exosomes (from B16F10) in the absence or presence of A8 (16 μM) for 24 hours and then analyzed for viability by Cellometer-mini (Ozyme).

[1] = test system: membrane HSP70 on tumor-derived exosomes (B16F10, HCT116); assay: BLI binding of tumor-derived exosomes to immobilized biotinylated A8, with or without cmHSP70
Procedure: FIG. 1: Tumor-derived exosomes in cancer patient′ samples express HSP70. (A) The binding of exosomes (10^6), derived from the B16F10, HCT116 cell lines, with or without previous incubation with cmHSP70, to immobilized biotinylated A8 was determined by biolayer interferometry. (B) Association curves of HSP70-exosomes in patients' urines (1 breast, 1 pulmonary) or healthy individuals (controls) with biotinylated A8 immobilized on streptavidin sensor tips. Curves represent mean values of triplicate measurements for each concentration. (C) Exosomes expressing HSP70 were determined by FACS in urine samples from healthy individuals (n=5) and cancer metastatic cancer patients (5 breast, 4 pulmonary). The bar graph presents the means and standard deviations of the vesicle concentrations. (D) Nanoparticle Tracking Analysis (NTA) to quantify total number of exosomes in urine human samples (urines) described above. Samples were diluted in PBS and analyzed using a NanoSight LM10 instrument. Inset values represent the total number of exosomes counted 10̂^9/ml.
Protein-protein interaction experiments were conducted at 25° C. in PBS with an Octet Red instrument (Forte Bio, Menlo Park, Calif., USA) by biolayer interferometry (BLI). […] Each KD was determined with a 1:1 stoichiometry model using a global fit with Rmax unlinked by sensor (Forte Bio, Data analysis software version 7.1.0.89). […]

## SPWPRPTY [Aptamer A8, SPWPRPTY]
Primary MDSC
  TDE-induced proliferation of primary MDSC: blocked
[1]
  ability of cmHSP70 to bind to HSP70 (competition): in a dose dependent manner, decreased the ability of cmHSP70 to bind to HSP70
[1]; immobilized biotinylated A8, exosomes (10^6)
  capture of exosomes through interaction with membrane-HSP70: efficiently captured exosomes
